In PubChem BioAssay (NCI):
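In this assay, cells in 96-well plates receive the compound at five concentrations for 48 hours. Endpoints are linearly interpolated between the surrounding concentrations. TGI marks complete inhibition of growth.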

How the values were obtained:
Assay in all cases: NCI tumour cell line growth inhibition, 48 h
KM20L2 colon = tested on: KM20L2 colon
A549 NSCLC = tested on: A549 NSCLC
SR leukemia = tested on: SR leukemia
OVCAR-5 ovarian = tested on: OVCAR-5 ovarian
NCI-H23 lung = tested on: NCI-H23 lung
HOP-62 NSCLC = tested on: HOP-62 NSCLC
SK-MEL-5 melanoma = tested on: SK-MEL-5 melanoma
LXFL 529 NSCLC = tested on: LXFL 529 NSCLC
LOX IMVI melanoma = tested on: LOX IMVI melanoma
DMS 114 small cell lung = tested on: DMS 114 small cell lung
CCRF-CEM leukemia = tested on: CCRF-CEM leukemia
SK-MEL-28 melanoma = tested on: SK-MEL-28 melanoma
SNB-75 CNS = tested on: SNB-75 CNS
SF-295 CNS = tested on: SF-295 CNS
K-562 leukemia = tested on: K-562 leukemia
IGROV1 ovarian = tested on: IGROV1 ovarian
HOP-92 NSCLC = tested on: HOP-92 NSCLC
DMS 273 small cell lung = tested on: DMS 273 small cell lung
UO-31 renal = tested on: UO-31 renal
SNB-78 CNS = tested on: SNB-78 CNS
SK-OV-3 ovarian = tested on: SK-OV-3 ovarian
ACHN renal = tested on: ACHN renal
RPMI-8226 leukemia = tested on: RPMI-8226 leukemia
M14 melanoma = tested on: M14 melanoma
SW-620 colon = tested on: SW-620 colon
M19-MEL melanoma = tested on: M19-MEL melanoma
COLO 205 colon = tested on: COLO 205 colon
TK-10 renal = tested on: TK-10 renal
KM12 colon = tested on: KM12 colon
HOP-18 NSCLC = tested on: HOP-18 NSCLC
MALME-3M melanoma = tested on: MALME-3M melanoma
HL-60(TB) leukemia = tested on: HL-60(TB) leukemia
NCI-H460 lung = tested on: NCI-H460 lung
UACC-257 melanoma = tested on: UACC-257 melanoma
SK-MEL-2 melanoma = tested on: SK-MEL-2 melanoma
MOLT-4 leukemia = tested on: MOLT-4 leukemia
UACC-62 melanoma = tested on: UACC-62 melanoma
HCT-15 colon = tested on: HCT-15 colon
OVCAR-8 ovarian = tested on: OVCAR-8 ovarian
SNB-19 CNS = tested on: SNB-19 CNS
SF-539 CNS = tested on: SF-539 CNS
OVCAR-4 ovarian = tested on: OVCAR-4 ovarian
HCT-116 colon = tested on: HCT-116 colon
XF 498 CNS = tested on: XF 498 CNS
NCI-H522 lung = tested on: NCI-H522 lung
786-0 renal = tested on: 786-0 renal
EKVX NSCLC = tested on: EKVX NSCLC
DLD-1 colon = tested on: DLD-1 colon
OVCAR-3 ovarian = tested on: OVCAR-3 ovarian
CAKI-1 renal = tested on: CAKI-1 renal
HCC-2998 colon = tested on: HCC-2998 colon
SF-268 CNS = tested on: SF-268 CNS
HT29 colon = tested on: HT29 colon
RXF-631 renal = tested on: RXF-631 renal
U251 CNS = tested on: U251 CNS
SN12C renal = tested on: SN12C renal
RXF 393 renal = tested on: RXF 393 renal
NCI-H226 lung = tested on: NCI-H226 lung
A498 renal = tested on: A498 renal

Measured: TGI

NC(=O)NC1C(C(N)=O)N(Cc2ccccc2)C(=O)N1Cc1ccccc1 (stereo unspecified)
not listed: SN12C renal | RXF 393 renal | NCI-H226 lung | A498 renal
> 100 µM: all other assays above

CCSc1c2ccccc2c(-c2nc(F)nc(F)n2)n1CCc1ccccc1
not listed: SK-MEL-5 melanoma | SNB-75 CNS | IGROV1 ovarian | SK-OV-3 ovarian | HOP-18 NSCLC | UACC-257 melanoma | UACC-62 melanoma | OVCAR-8 ovarian | DLD-1 colon
> 100 µM: all other assays above

C[C@]12CCC3[C@@H](CC[C@@H]4c5nonc5CC[C@]34C)C1CC[C@@H]2O (stereo partly specified)
71.2 µM: DMS 114 small cell lung
69.4 µM: DLD-1 colon
32.3 µM: SF-539 CNS
46.9 µM: UACC-257 melanoma
41.1 µM: LOX IMVI melanoma
85.2 µM: A549 NSCLC
69.6 µM: RXF 393 renal
55.1 µM: MOLT-4 leukemia
60.8 µM: DMS 273 small cell lung
57.7 µM: HOP-92 NSCLC
82.4 µM: OVCAR-4 ovarian
45.7 µM: U251 CNS
84.9 µM: SK-OV-3 ovarian
69.3 µM: MALME-3M melanoma
75.5 µM: 786-0 renal | EKVX NSCLC
53 µM: M14 melanoma
70 µM: SK-MEL-28 melanoma
53.2 µM: SN12C renal
66.3 µM: ACHN renal
48.3 µM: SK-MEL-2 melanoma
50.9 µM: NCI-H522 lung
62.7 µM: A498 renal
53.7 µM: XF 498 CNS
54.8 µM: CCRF-CEM leukemia
62.1 µM: OVCAR-3 ovarian
38.9 µM: RPMI-8226 leukemia
41 µM: SK-MEL-5 melanoma
52.6 µM: CAKI-1 renal
71.7 µM: NCI-H460 lung
71.3 µM: COLO 205 colon
83.5 µM: HCT-15 colon
43.9 µM: HL-60(TB) leukemia
77.8 µM: SNB-75 CNS
not listed: SR leukemia | UO-31 renal | HCT-116 colon
> 100 µM: all other assays above
